Source: BindingDB's records for patent US11225492 (Hangzhou Innogate Pharma Co., Ltd., 2022)

Target: Cyclin-dependent kinase 6 (Homo sapiens, UniProt Q00534)
Assay: Kinase Assay
Procedure: CDK2/CycA2 and CDK6/cycD3 were assayed under buffer conditions in the presence of 50 mM HEPES (pH 7.5), 10 mM MgCl2, 0.0015% Brij-35, and 2 mM dithiothreitol, CDK4/CycD3 with buffer condition of 20 mM HEPES (pH 7.5), 10 mM MgCl2, 0.01% Triton X-100, and 2 mM dithiothreitol. Prepare compounds to 50× of the final desired highest inhibitor concentration by 100% DMSO and serial dilution in 3-fold for total of 10 concentrations. […] After assay for 60 min, 180 min, 60 min respectively at 28° C., reactions were terminated with stop solution (50 mM EDTA, 0.015% Brij-35, 0.2% Coating Reagent #3 and 100 mM HEPES (pH 7.5)). Collect conversion on Caliper EZ Reader.

Chain of Cyclin-dependent kinase 6 (Q00534 whole entry): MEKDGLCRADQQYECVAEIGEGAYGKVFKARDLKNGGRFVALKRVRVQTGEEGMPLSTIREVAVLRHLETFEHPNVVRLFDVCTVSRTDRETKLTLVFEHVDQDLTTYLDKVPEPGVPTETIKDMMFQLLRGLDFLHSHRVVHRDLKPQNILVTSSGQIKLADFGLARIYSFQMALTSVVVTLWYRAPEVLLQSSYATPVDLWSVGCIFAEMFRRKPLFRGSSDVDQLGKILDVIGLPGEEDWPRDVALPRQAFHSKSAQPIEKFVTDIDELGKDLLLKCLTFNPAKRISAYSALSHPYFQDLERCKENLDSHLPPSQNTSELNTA

IC50, < 0.025 µM:
CC(=O)c1c(C)c2cnc(Nc3ccc4c(c3)OC[C@H]3CNCCN43)nc2n(C2CCCC2)c1=O [US11225492, Compound 7R]
CC(=O)c1c(C)c2cnc(Nc3ccc4c(c3)OCC3CNCCN43)nc2n(C2CCCC2)c1=O (racemic) [US11225492, Compound 7]
CC(=O)c1c(C)c2cnc(Nc3ccc4c(c3)OC[C@@H]3CNCCN43)nc2n(C2CCCC2)c1=O [US11225492, Compound 7S]
